Source: patent US5447919A, “Sulfated oligosaccharides” (Hoffmann-La Roche Inc., priority 1991, dated 1995)

How the values were obtained:
[1] = tested on: smooth muscle cells of rats; assay: Anti-proliferative activity in smooth muscle cell culture (% inhibition of growth after 7 days); type: cell-based, rat; settings: for Anti-proliferative activity % inhibition: rat smooth muscle cells, 7 days, test substance 100 mg/ml as printed (100 μl/ml), vs non-inhibited growth
Procedure: The anti-proliferative activity of the substances was determined in cell cultures as follows: smooth muscle cells of rats (cultivated in DMEM with 10% FCS at 37° C. and 5% CO2) were applied to cell culture plates with a density of 8×10^3 cells/well. After 4 hours, the number of adhered cells was determined and the substances to be tested ([…]) were added. Cells to which test substance was not added served as a comparison and heparin ([…]) served as a positive control. The cells were incubated for 7 days and then the cell number was determined. The antiproliferative activity of the individual substances was calculated as the % inhibition in comparison to non-inhibited growth: [formula] wherein cell number(d=0) =cell number after 4 h […]
cell number(-) =cell number to which test substances was not added, after 7 days. cell number (inhib) =cell number with […] of the test substance

citrated human plasma = assay: aPTT (activated partial thromboplastin time) Test; type: biochemical; settings: concentration which leads to a coagulation time double the control value
Procedure: (§1) The blood coagulation-ihibiting activity was determined as follows:
aPTT (activated partial thromboplastin time) Test (see Walenga et al., CRC Critical Reviews in Laboratory Sciences 22 (4) 361-389(1986)): 100 μl of citrated human plasma, which contains various concentrations of test compound, are incubated at 37° C. for 8 minutes with 100 μl of Activated Thrombofax (Ortho Diagnostics, Raritan, N.J., U.S.A.). 100 μl of prewarmed 25 mM calcium chloride solution are then added and the coagulation time is measured in a Fibrometer Coagulation Timer (Becton, Dickinson Basle).
(§2) The activity of the test compound is given as the IC50, which is that concentration [μg/ml] which leads to a coagulation time which is double the control value.

Factor Xa = Factor Xa (Bos taurus, UniProt P00743); assay: anti-Xa Clotting Assay; type: biochemical; settings: concentration which leads to a coagulation time double the control value; citrated plasma
Sequence of Factor Xa (P00743 234-492 limits assumed): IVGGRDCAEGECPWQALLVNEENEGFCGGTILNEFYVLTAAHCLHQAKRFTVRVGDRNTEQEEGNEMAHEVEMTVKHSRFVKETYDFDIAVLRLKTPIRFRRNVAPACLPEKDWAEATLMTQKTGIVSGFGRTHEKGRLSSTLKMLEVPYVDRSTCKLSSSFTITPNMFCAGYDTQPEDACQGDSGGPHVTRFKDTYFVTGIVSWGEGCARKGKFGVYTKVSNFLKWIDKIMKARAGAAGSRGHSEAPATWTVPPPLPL
Sequence of Factor Xa (P00743 41-180 partner limits assumed): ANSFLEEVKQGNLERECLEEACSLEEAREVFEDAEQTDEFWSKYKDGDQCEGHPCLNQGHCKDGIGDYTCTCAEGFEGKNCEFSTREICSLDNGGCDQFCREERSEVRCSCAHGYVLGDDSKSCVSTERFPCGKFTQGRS
Procedure: as §1
anti-Xa Clotting Assay: 25 μl of citrated plasma having various concentrations of test compound are mixed with 75 μl of Factor Xa (Diagnostic Reagents, Thame, Oxon, Great Britain) diluted 1:100 in 0.63% citrate buffer (pH 7.3) which contains 41 mM imidazole, 82 mM NaCl and 0.1% albumin. After warming to 37° C. for 2 minutes, 200 μl of a 1:1 mixture of Factor X Deficient Plasma (Diagnostic Reagents) and Platelet Substitute (Diagnostic Reagents) are added and the mixture is incubated at 37° C. for 20 seconds. After the addition of 100 μl of pre-warmed 50 mM calcium chloride solution, the coagulation time is measured in a Fibrometer.
as §2

Anti-coagulation activity IC50, Coagulation inhibition aPTT (citrated human plasma) | Anti-coagulation activity IC50, Coagulation inhibition Xa (Factor Xa) | Substance | anti-proliferative activity (in words) ([1]; summary of test results of Table 1) | Anti-proliferative activity % inhibition [1]
 |  | Heparin [reference compound] | anti-proliferatively active | 
27 µg/mL | > 1000 µg/mL | sulfated raffinose [Example 1] |  | 41%
150 µg/mL | 250 µg/mL | sulfated melezitese [Example 2] |  | 25%
